Source: ChEMBL document CHEMBL4613241, “Disulfide Cleavage in a Dimeric Epipolythiodioxopiperazine Natural Product Diminishes Its Apoptosis-Inducing Effect but Enhances Autophagy in Tumor Cells” (2020)
Active and inactive are the calls of the source. The rule behind the calls is not given here.

How the values were obtained:
HepG2 [1] = assay: Induction of autophagy in human HepG2 cells assessed as ratio of LC3-2 level to total ERK level at 0.5 uM after 2 hrs in presence of CQ by Western blot analysis (reference value: 1); format: functional
HepG2 [2] = assay: Induction of endoplasmic reticulum stress in human HepG2 cells assessed as increase in […] expression at 0.5 uM after 4 hrs by anti-ATF6 antibody staining based fluorescence microscopic method; format: functional, cell-based
HepG2 [3] = assay: Activation of AMPKalpha in human HepG2 cells assessed as ratio of phosphorylated ACCalpha at S79 residue to total ERK level at 0.5 uM incubated for 4 hrs in presence of CC by Western blot analysis (reference value: 1.1); format: cell-based
[4] = target: Serine/threonine-protein kinase mTOR (Homo sapiens) (UniProt P42345); assay: Inhibition of mTOR phosphorylation at S2448 residue in human HepG2 cells assessed as ratio of phosphorylated mTOR to total mTOR level at 0.05 uM after 4 hrs by Western blot analysis (reference value: 1); format: cell-based
HepG2 [5] = assay: Induction of autophagy in human HepG2 cells assessed as accumulation of LC3-2 protein level at 0.5 uM after 4 hrs in presence of CQ by Western blot analysis analysis relative to CQ; format: functional
HepG2 [6] = assay: Induction of autophagy in human HepG2 cells assessed as ratio of LC3-2 level to total ERK level at 0.5 uM after 2 hrs in presence of 2-DG and CQ by Western blot analysis (reference value: 3.9); format: functional
[7] = target: Serine/threonine-protein kinase mTOR (Homo sapiens) (UniProt P42345); assay: Inhibition of mTOR phosphorylation at S2448 residue in human HepG2 cells assessed as ratio of phosphorylated mTOR to total ERK level at 0.1 uM after 4 hrs by Western blot analysis (reference value: 1); format: cell-based
HepG2 [8] = assay: Induction of autophagy in human HepG2 cells assessed as increase in LC3 puncta staining at 0.5 uM after 4 hrs by immunostaining based fluorescence microscopic analysis; format: functional, cell-based
HepG2 [9] = assay: Induction of autophagy in human HepG2 cells ratio of LC3-2 level to total ERK level at 0.5 uM after 2 hrs in presence of PFKFB3 siRNA and CQ by Western blot analysis relative to PFKFB3 siRNA; format: functional
HepG2 [10] = assay: Induction of autophagy in human HepG2 cells assessed as ratio of LC3-2 to total Erk1/2 protein level at 0.5 uM after 4 hrs in presence of CQ by Western blot analysis (reference value: 2.6); format: functional
[11] = target: Serine/threonine-protein kinase mTOR (Homo sapiens) (UniProt P42345); assay: Inhibition of mTOR phosphorylation at S2448 residue in human HepG2 cells assessed as ratio of phosphorylated mTOR to total mTOR level at 0.25 uM after 4 hrs by Western blot analysis (reference value: 1); format: cell-based
HepG2 [12] = assay: Induction of autophagy in human HepG2 cells ratio of LC3-2 level to total ERK level at 0.5 uM after 2 hrs in presence of CQ by Western blot analysis relative to CQ; format: functional
HepG2 [13] = assay: Induction of autophagy in human HepG2 cells ratio of LC3-2 level to total ERK level at 0.5 uM after 2 hrs in presence of 2-DG and CQ by Western blot analysis relative to 2-DG; format: functional
HepG2 [14] = assay: Induction of autophagy in human HepG2 cells assessed as ratio of LC3-2 to total Erk1/2 protein level at 0.5 uM after 4 hrs by Western blot analysis (reference value: 1); format: functional
HepG2 [15] = assay: Activation of AMPKalpha in human HepG2 cells assessed as ratio of phosphorylated ACCalpha at S79 residue to total ERK level at 0.5 uM incubated for 4 hrs in presence of CC by Western blot analysis relative to CC; format: cell-based
HepG2 [16] = assay: Induction of autophagy in human HepG2 cells assessed as ratio of LC3-2 level to total Erk1/2 protein level at 0.5 uM after 4 hrs in presence of CC and CQ by Western blot analysis (reference value: 2.4); format: functional
[17] = target: Serine/threonine-protein kinase mTOR (Homo sapiens) (UniProt P42345); assay: Inhibition of mTOR phosphorylation at S2448 residue in human HepG2 cells assessed as ratio of phosphorylated mTOR to total ERK level at 0.25 uM after 4 hrs by Western blot analysis (reference value: 1); format: cell-based
MCF7 = assay: Antiproliferative activity against human MCF7 cells assessed as reduction in cell viability by MTS assay; format: functional, cell-based
HepG2 [18] = assay: Induction of autophagy in human HepG2 cells assessed as ratio of LC3-2 level to total ERK level at 0.5 uM after 2 hrs in presence of PFKFB3 siRNA and CQ by Western blot analysis (reference value: 0.8); format: functional
HepG2 [19] = assay: Induction of autophagy in human HepG2 cells assessed as ratio of LC3-2 to total Erk1/2 protein level at 0.5 uM after 12 hrs in presence of CQ by Western blot analysis (reference value: 3.9); format: functional
[20] = target: Serine/threonine-protein kinase mTOR (Homo sapiens) (UniProt P42345); assay: Inhibition of mTOR phosphorylation at S2448 residue in human HepG2 cells assessed as ratio of phosphorylated mTOR to total ERK level at 1 uM after 4 hrs by Western blot analysis (reference value: 1); format: cell-based
[21] = target: Serine/threonine-protein kinase mTOR (Homo sapiens) (UniProt P42345); assay: Inhibition of mTOR phosphorylation at S2448 residue in human HepG2 cells assessed as ratio of phosphorylated mTOR to total ERK level at 0.5 uM after 4 hrs by Western blot analysis (reference value: 1); format: cell-based
[22] = target: Serine/threonine-protein kinase mTOR (Homo sapiens) (UniProt P42345); assay: Inhibition of mTOR phosphorylation at S2448 residue in human HepG2 cells assessed as ratio of phosphorylated mTOR to total mTOR level at 0.1 uM after 4 hrs by Western blot analysis (reference value: 1); format: cell-based
A549 = assay: Antiproliferative activity against human A549 cells assessed as reduction in cell viability by MTS assay; format: functional, cell-based
HepG2 [23] = assay: Induction of autophagy in human HepG2 cells assessed as ratio of LC3-2 level to total ERK level at 0.5 uM after 2 hrs in presence of PFK15 and CQ by Western blot analysis (reference value: 1.1); format: functional
[24] = target: Serine/threonine-protein kinase mTOR (Homo sapiens) (UniProt P42345); assay: Inhibition of mTOR phosphorylation at S2448 residue in human HepG2 cells assessed as ratio of phosphorylated mTOR to total ERK level at 0.05 uM after 4 hrs by Western blot analysis (reference value: 1); format: cell-based
[25] = target: Serine/threonine-protein kinase mTOR (Homo sapiens) (UniProt P42345); assay: Inhibition of mTOR phosphorylation at S2448 residue in human HepG2 cells assessed as ratio of phosphorylated mTOR to total mTOR level at 1 uM after 4 hrs by Western blot analysis (reference value: 1); format: cell-based
[26] = target: RAC-alpha serine/threonine-protein kinase (Homo sapiens) (UniProt P31749); assay: Inhibition of AKT phosphorylation at S473 residue in human HepG2 cells assessed as ratio of phosphorylated Akt to total ERK level at 0.5 uM after 4 hrs by Western blot analysis (reference value: 1); format: cell-based
HepG2 [27] = assay: Activation of AMPKalpha in human HepG2 cells assessed as ratio of phosphorylated AMPKalpha at T172 residue to total ERK level at 0.5 uM incubated for 4 hrs in presence of CC by Western blot analysis (reference value: 1); format: cell-based
HepG2 [28] = assay: Induction of autophagy in human HepG2 cells assessed as ratio of LC3-2 level to total Erk1/2 protein level at 0.5 uM after 4 hrs in presence of CC and CQ by Western blot analysis relative to CC; format: functional

Chain of RAC-alpha serine/threonine-protein kinase (Homo sapiens) (P31749 whole entry): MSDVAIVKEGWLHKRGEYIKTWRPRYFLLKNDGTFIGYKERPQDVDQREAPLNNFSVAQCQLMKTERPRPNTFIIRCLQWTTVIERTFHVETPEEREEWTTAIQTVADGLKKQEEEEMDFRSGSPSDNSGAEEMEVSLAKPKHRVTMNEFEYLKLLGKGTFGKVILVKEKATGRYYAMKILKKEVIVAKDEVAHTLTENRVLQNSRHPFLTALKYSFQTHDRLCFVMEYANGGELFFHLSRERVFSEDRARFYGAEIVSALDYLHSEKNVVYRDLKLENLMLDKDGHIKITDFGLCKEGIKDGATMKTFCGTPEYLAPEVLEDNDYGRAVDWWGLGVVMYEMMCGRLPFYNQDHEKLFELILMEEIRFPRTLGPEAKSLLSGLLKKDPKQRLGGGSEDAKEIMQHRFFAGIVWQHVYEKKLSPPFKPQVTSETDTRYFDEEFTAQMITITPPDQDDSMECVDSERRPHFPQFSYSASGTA

For `CCC1(SC)C(=O)N2[C@H]3N(C)c4ccccc4C3(C34c5ccccc5N(C)[C@@H]3N3C(=O)C(SC)([C@@H](C)O)N(C)C(=O)C3(SC)[C@H]4O)[C@H](O)C2(SC)C(=O)N1C` (stereo not given in full), the Ratio (HepG2 [1]) was 3.2, the Activity (HepG2 [2]) was “inactive” and the Ratio (HepG2 [3]) was 1.1. For the same compound, the Ratio [4] was 1.8, the “fold change (FC)” value (HepG2 [5]) was 2.8 and the Ratio (HepG2 [6]) was 3.7. The Ratio [7] was 1, the Activity (HepG2 [8]) was “Active” and the “fold change (FC)” value (HepG2 [9]) was 4.6. For the same compound, the Ratio (HepG2 [10]) was 3.1, the Ratio [11] was 2.2 and the “fold change (FC)” value (HepG2 [12]) was 2.2. The “fold change (FC)” value (HepG2 [13]) was 3.7, the Ratio (HepG2 [14]) was 1.1 and the fold change (FC) (HepG2 [15]) was 0.7. For the same compound, the Ratio (HepG2 [16]) was 0.9, the Ratio [17] was 1 and the Activity (MCF7) was “Active”. For the same compound, the Ratio (HepG2 [18]) was 4.6, the Ratio (HepG2 [19]) was 4.4 and the Ratio [20] was 0.9. The Ratio [21] was 1, the Ratio [22] was 1.8 and the Activity (A549) was “Active”. For the same compound, the Ratio (HepG2 [23]) was 3.9, the Ratio [24] was 1 and the Ratio [25] was 2.2. The Ratio [26] was 1.1, the Ratio (HepG2 [27]) was 0.9 and the “fold change (FC)” value (HepG2 [28]) was 1.3.
With `CC[C@@]12SS[C@]3(C(=O)N1C)[C@@H](O)C1(C45c6ccccc6N[C@@H]4N4C(=O)[C@]6([C@@H](C)O)SS[C@]4(C(=O)N6C)[C@H]5O)c4ccccc4N[C@@H]1N3C2=O` (stereo not given in full) the Ratio (HepG2 [1]) was 3.1, the Activity (HepG2 [2]) was “inactive” and the Ratio (HepG2 [3]) was 1. The Ratio [4] was 1.4, the “fold change (FC)” value (HepG2 [5]) was 2.3 and the Ratio (HepG2 [6]) was 3.7. For the same compound, the Ratio [7] was 0.9, the Activity (HepG2 [8]) was “Active” and the “fold change (FC)” value (HepG2 [9]) was 4.8. For the same compound, the Ratio (HepG2 [10]) was 2.8, the Ratio [11] was 1.4 and the “fold change (FC)” value (HepG2 [12]) was 2.1. For the same compound, the “fold change (FC)” value (HepG2 [13]) was 3.7, the Ratio (HepG2 [14]) was 1.2 and the fold change (FC) (HepG2 [15]) was 0.7. For the same compound, the Ratio (HepG2 [16]) was 0.9, the Ratio [17] was 1 and the Activity (MCF7) was “Active”. It also gave a Ratio (HepG2 [18]) of 4.3, a Ratio (HepG2 [19]) of 4.2 and a Ratio [20] of 1. For the same compound, the Ratio [21] was 1, the Ratio [22] was 1.2 and the Activity (A549) was “Active”. It also gave a Ratio (HepG2 [23]) of 4.4, a Ratio [24] of 1 and a Ratio [25] of 1.8. The Ratio [26] was 1.2, the Ratio (HepG2 [27]) was 0.9 and the “fold change (FC)” value (HepG2 [28]) was 0.9.
